Reference: patent publication US7135292B2, “Analysis and modification of gene expression in marine invertebrate cells” (Harbor Branch Oceanographic Institution, Inc., priority 2002, dated 2006)

System: Axinella corrugata cell cultures
Assay: Human-sequence microarray (Gene Filters) analysis of gene expression, PHA-treated vs untreated sponge cell cultures
Type: cell-based
Conditions: PHA treated/untreated, 12 h
Text: Sponge Cells. Cells were obtained from cryopreserved stocks at Harbor Branch Oceanographic Institution. All cells were derived from Axinella corrugata specimens collected in the waters of Florida, the Bahamas, and the Caribbean Sea, and were cryopreserved according to Pomponi et al. (Pomponi et al. 1997b supra). This sponge is relatively common and easy to collect, amenable to culture efforts, and produces the bioactive compound, stevensine, in vitro (Pomponi et al. 1997b supra). Enriched fractions of dissociated sponge cells were prepared, cryopreserved, and thawed according to previously published methods (Pomponi et al. 1997b supra). Cells were incubated at 22–25° C. in a growth medium consisting of a modified and supplemented commercial formulation (Willoughby and Pomponi 2000 supra). The length of the incubation period was based on my unpublished observation of elevated DNA and protein contents (9%, P=0.034, and 9%, P=0.038, respectively) in PHA-treated cultures, according to fluorescent assays of 6 replicate comparisons (Willoughby and Pomponi 2000 supra). Since the effects were observed between 6 and 18 hours after treatment, cells were cultured for 12-hour periods representing the center point of the period of observed changes. Two sets of cultures were incubated with approximately 2×10^8 cells per T-75 flask—a control set and an experimental set treated with 1.5% phytohemagglutinin (PHA) (Life Technologies, M-form).
RNA Isolation. RNA isolation was performed on unrinsed, pelleted cells. Pellets were quickly frozen in a dry ice alcohol bath and stored at −70° C. until RNA isolation. The Qiagen RNeasy® protocol was used, with the following modifications. Samples were disrupted with a micropestle or homogenized by the rotor-stator method, using twice the recommended volume of lysis solution. Prior to column loading, samples were centrifuged through a Qiashredder® column to complete homogenization and remove insoluble material. Supernatant was collected for use in the rest of the protocol. During the first wash step, samples were incubated on the column with DNase 1 (Qiagen or Ambion) for 15 minutes. After the final wash, samples were incubated on the column with the RNase free elution water for 15 minutes prior to elution. Sub-samples were diluted 20× and quantified on a Genequant® spectrophotometer.
cDNA Labeling. Sub-samples of the isolated total RNA (8 μl) were primed with oligo dT (10–20 mer) (Research Genetics, Inc.) for 10 minutes at 70° C., then briefly chilled on ice, followed by addition of 2 volumes of RT cocktail based upon the Life Technologies Superscript II® protocol (containing dATP, dGTP, dTTP, and α-^33P dCTP [NEN Easy Tides®, 3000 Ci/mmol]). The mixture was incubated for 90 minutes at 37° C., and diluted to 100 μl for purification on a Bio-Spin column (Boi-Rad) according to the Gene Filter® (Research Genetics, Inc.) recommended protocol. The resultant labeled probes were then denatured for 3 minutes in a boiling water bath prior to incorporation into the hybridization solution.
Microarrays. Research Genetics Gene Filters®, version 211, were employed in this study. These microarrays feature over 4000 distinct sequence-verified genes spotted onto a 5×7 cm nylon membrane. The DNA at each spot represents approximately 1 kb from the 3′ end of the gene. The microarrays also include spots of total genomic DNA (see FIG. 5). The 211 series is constructed from human sequences. A cross-referenced database listing of all the genes represented on the array is available at http://www.resgen.com. The 2 genes referenced in this work carry the I.M.A.G.E. Consortium (Lennon, G. G., C. Auffray, M. Polymeropoulos and M. B. Soares 1996, Genomics 33:151–152), Clone IDs 81408 (calcineurin B) and 858292 (cdc10).
Hybridization. […]

## phytohemagglutinin [PHA]
No. 1
  Ratio, MHC class II DQ-beta associated with DR2, DQw1 protein: 0.492
No. 2
  Ratio, Collagen, type II, alpha 1 (primary osteoarthritis, spondyloepiphyseal dysplasia, congenital): 0.384
No. 3
  Ratio, Hemoglobin, alpha 1: 0.157
No. 4
  Ratio, Heat shock 60 kD protein 1 (chaperonin): 2.443
No. 5
  Ratio, Interleukin 7 receptor: 0.156
No. 6
  Ratio, Cytochrome P450, subfamily IVA, polypeptide 11: 0.310
No. 7
  Ratio, Human metallothionein I-B gene: 0.388
No. 8
  Ratio, Homo sapiens NF-E2 protein (NF-E2) mRNA, complete cds: 2.223
No. 9
  Ratio, Tissue inhibitor of metalloproteinase 1 (erythroid potentiating activity, collagenase inhibitor): 0.252
No. 10
  Ratio, Adenylate kinase 1: 0.055
No. 11
  Ratio, Oxytocin receptor: 0.084
No. 12
  Ratio, Homo sapiens mRNA for epiregulin, complete cds: 0.101
No. 13
  Ratio, Collagen, type V, alpha: 0.137
No. 14
  Ratio, MpV17 transgene, murine homolog, glomerulosclerosis: 0.319
No. 15
  Ratio, Tyrosine 3-monooxygenase/tryptophan 5-monooxygenase activation protein, zeta polypeptide: 9.835
No. 16
  Ratio, Von Hippel-Lindau syndrome: 2.707
No. 17
  Ratio, Homo sapiens TNF-alpha stimulated ABC protein (ABC50) mRNA, complete cds: 3.865
No. 18
  Ratio, Human brain mRNA for photolyase homolog, complete cds: 2.486
No. 19
  Ratio, Human BTG2 (BTG2) mRNA, complete cds: 2.431
No. 20
  Ratio, Membrane metallo-endopeptidase (neutral endopeptidase, enkephalinase, CALLA, CD10): 0.169
No. 21
  Ratio, Calcineurin B: 0.318
No. 22
  Ratio, Cell division cycle 10 (homologous to CDC10 of S. cerevisiae): 2.302
No. 23
  Ratio, Human renal cell carcinoma antigen RAGE-1 mRNA, complete putative cds: 0.477
No. 24
  Ratio, Homo sapiens putative OSP like protein mRNA, partial cds: 0.491
No. 25
  Ratio, H. sapiens mRNA for translin associated protein X: 2.631
No. 26
  Ratio, H. sapiens mRNA for phosphate cyclase: 0.395
No. 27
  Ratio, JNK activating kinase 1: 0.170
No. 28
  Ratio, Collagen, type IX, alpha 3: 47.686
No. 29
  Ratio, Non-catalytic region of tyrosine kinase: 0.233
No. 30
  Ratio, Triosephosphate isomerase 1: 0.357
No. 31
  Ratio, Calreticulin Precursor: 12.868
No. 32
  Ratio, Human transportin (TRN) mRNA, complete cds: 3.328
No. 33
  Ratio, Fanconi anemia complementation group C: 0.342
No. 34
  Ratio, Zinc finger protein basonuclin: 0.417
No. 35
  Ratio, Autosomal dominant polycystic kidney disease type II: 0.224
No. 36
  Ratio, Double-stranded RNA adenosine deaminase: 0.456
No. 37
  Ratio, Dual specificity protein phosphatase PAC-1: 0.175
No. 38
  Ratio, Homo sapiens Tax interaction protein 33 mRNA, partial cds: 0.426
No. 39
  Ratio, H. sapiens mRNA for M-phase phosphoprotein, mpp5: 2.970
No. 40
  Ratio, Nucleolysin TIA-1: 0.430
No. 41
  Ratio, Homo sapiens mRNA for ISLR, complete cds: 12.597
No. 42
  Ratio, H. sapiens mRNA for M130 antigen: 0.443
No. 43
  Ratio, Human tRNA-guanine transglycosylase mRNA, complete cds: 0.213
No. 44
  Ratio, Homo sapiens mRNA for vesicle associated membrane protein 2 (VAMP2): 3.925
No. 45
  Ratio, Erythrocyte membrane protein band 4.9 (dematin): 0.408
No. 46
  Ratio, 6-Pyruvol tetrahydrobiopterin synthase: 0.440
No. 47
  Ratio, Villin: 0.008
No. 48
  Ratio, Multidrug reistance protein 1: 3.272
No. 49
  Ratio, Human histone H2B.1 mRNA, 3′ end: 0.247
No. 50
  Ratio, Human heregulin-betal gene, complete cds: 5.582
No. 51
  Ratio, Amyloid P component, serum: 3.994
No. 52
  Ratio, Alternative guanine nucleotide-binding regulatory protein (G) alpha-inhibitory-subunit: 0.462
No. 53
  Ratio, Ribosomal protein S6 kinase, 90 kD, polypeptide 2: 0.252
No. 54
  Ratio, Interleukin 15 receptor alpha chain: 3.996
No. 55
  Ratio, Cadherin 11 (OB-cadherin): 0.425
